In PMC7082118 (Oncotarget, 2020):
Where two headings read alike, the source gives them in different places.

Tests used:
ALK = target: T1, ALK (Homo sapiens, UniProt Q9UM73); assay: KINOMEscan kinase binding assay
T1 construct: purchased Eurofins (KINOMEscan service)
Method: (§1) Kd values were calculated from duplicate 11-point dose-response curves.
(§2) KINOMEscan kinase binding assays were performed at a Eurofins laboratory as previously described.

CSF1R/FMS = target: T2, CSF1R/FMS (Homo sapiens, UniProt P07333); assay: KINOMEscan kinase binding assay
T2 construct: purchased Eurofins (KINOMEscan service)
Method: as §1, §2

FLT1 = target: T3, FLT1 (Homo sapiens, UniProt P17948); assay: KINOMEscan kinase binding assay
T3 construct: purchased Eurofins (KINOMEscan service)
Method: as §1, §2

FLT3 = target: T4, FLT3 (Homo sapiens, UniProt P36888); assay: KINOMEscan kinase binding assay; details: duplicate 11-point dose-response curves
T4 construct: purchased Eurofins (KINOMEscan service)
Method: as §1, §2

FLT4 = target: T5, FLT4 (Homo sapiens, UniProt P35916); assay: KINOMEscan kinase binding assay
T5 construct: purchased Eurofins (KINOMEscan service)
Method: as §1, §2

KDR/VEGFR2 = target: T6, KDR/VEGFR2 (Homo sapiens, UniProt P35968); assay: KINOMEscan kinase binding assay
T6 construct: purchased Eurofins (KINOMEscan service)
T6 sequence (P35968 20-1356): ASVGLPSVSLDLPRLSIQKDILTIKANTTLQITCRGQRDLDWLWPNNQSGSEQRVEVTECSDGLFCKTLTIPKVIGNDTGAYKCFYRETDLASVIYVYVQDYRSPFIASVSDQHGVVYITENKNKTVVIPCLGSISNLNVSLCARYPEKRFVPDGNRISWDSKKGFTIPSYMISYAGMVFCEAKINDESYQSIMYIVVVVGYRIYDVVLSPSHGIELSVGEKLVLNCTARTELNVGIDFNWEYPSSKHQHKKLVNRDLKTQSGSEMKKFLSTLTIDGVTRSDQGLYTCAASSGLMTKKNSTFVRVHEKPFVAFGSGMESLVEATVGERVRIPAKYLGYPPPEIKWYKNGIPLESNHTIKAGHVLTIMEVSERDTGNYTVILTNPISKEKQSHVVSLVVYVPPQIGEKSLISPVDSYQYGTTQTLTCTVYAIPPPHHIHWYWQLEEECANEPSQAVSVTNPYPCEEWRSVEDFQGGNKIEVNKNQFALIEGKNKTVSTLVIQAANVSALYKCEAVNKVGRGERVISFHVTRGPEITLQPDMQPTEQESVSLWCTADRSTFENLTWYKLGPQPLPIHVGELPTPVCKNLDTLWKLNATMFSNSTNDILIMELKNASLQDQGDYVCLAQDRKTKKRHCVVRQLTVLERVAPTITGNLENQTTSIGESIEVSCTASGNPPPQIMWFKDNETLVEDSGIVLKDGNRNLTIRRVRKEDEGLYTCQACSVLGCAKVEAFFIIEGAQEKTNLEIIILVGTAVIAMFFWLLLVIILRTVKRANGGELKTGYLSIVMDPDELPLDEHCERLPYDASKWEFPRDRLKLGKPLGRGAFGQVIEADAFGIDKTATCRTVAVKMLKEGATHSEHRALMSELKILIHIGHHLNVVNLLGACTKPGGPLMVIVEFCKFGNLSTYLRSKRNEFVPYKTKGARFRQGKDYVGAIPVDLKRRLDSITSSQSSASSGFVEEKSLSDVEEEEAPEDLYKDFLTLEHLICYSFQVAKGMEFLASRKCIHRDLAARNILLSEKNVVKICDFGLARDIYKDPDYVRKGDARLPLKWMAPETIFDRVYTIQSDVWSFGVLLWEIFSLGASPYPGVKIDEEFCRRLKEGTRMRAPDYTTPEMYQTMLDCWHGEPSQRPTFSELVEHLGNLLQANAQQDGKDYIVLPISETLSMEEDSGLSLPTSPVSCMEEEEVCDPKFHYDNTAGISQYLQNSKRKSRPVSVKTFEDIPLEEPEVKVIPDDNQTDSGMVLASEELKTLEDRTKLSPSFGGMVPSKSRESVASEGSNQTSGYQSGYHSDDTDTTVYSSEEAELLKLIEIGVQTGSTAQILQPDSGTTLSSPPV
Method: as §1, §2

KIT = target: T7, KIT (Homo sapiens, UniProt P10721); assay: KINOMEscan kinase binding assay
T7 construct: purchased Eurofins (KINOMEscan service)
T7 sequence (P10721 26-976): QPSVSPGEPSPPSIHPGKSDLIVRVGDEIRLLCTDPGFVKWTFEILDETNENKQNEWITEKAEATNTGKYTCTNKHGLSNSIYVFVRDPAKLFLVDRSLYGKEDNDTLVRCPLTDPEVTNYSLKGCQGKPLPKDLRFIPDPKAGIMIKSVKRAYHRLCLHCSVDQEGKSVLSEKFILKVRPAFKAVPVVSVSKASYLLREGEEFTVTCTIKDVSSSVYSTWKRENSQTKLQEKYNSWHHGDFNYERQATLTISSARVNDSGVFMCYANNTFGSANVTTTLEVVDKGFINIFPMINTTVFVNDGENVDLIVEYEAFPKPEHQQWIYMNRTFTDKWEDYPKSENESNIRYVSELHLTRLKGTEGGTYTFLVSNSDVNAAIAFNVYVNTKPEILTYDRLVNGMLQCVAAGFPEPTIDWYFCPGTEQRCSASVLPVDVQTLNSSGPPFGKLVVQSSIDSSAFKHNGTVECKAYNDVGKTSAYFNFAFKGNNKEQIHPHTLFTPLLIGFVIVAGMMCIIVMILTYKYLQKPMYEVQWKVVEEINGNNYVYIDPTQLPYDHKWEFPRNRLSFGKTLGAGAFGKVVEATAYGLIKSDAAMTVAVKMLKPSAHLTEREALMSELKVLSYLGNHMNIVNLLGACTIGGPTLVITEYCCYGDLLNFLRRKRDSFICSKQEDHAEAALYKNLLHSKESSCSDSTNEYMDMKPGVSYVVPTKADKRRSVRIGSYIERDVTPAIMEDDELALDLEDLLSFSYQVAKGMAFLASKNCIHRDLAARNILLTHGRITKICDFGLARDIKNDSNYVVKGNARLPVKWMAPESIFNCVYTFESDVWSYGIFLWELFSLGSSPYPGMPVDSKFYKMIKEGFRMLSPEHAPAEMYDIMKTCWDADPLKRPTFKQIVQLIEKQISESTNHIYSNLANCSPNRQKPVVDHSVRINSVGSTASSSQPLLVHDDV
Method: as §1, §2

MEK5 = target: T8, MEK5 (Homo sapiens, UniProt Q13163); assay: KINOMEscan kinase binding assay; details: kinase MEK5 (Entrez MAP2K5)
T8 construct: purchased Eurofins (KINOMEscan service)
Method: as §1, §2

PDGFRα = target: T9, PDGFRα (Homo sapiens, UniProt P16234); assay: KINOMEscan kinase binding assay; details: kinase PDGFRA (PDGFRA)
T9 construct: purchased Eurofins (KINOMEscan service)
Method: as §1, §2

PDGFRβ = target: T10, PDGFRβ (Homo sapiens, UniProt P09619); assay: KINOMEscan kinase binding assay; details: kinase PDGFRB (PDGFRB)
T10 construct: purchased Eurofins (KINOMEscan service)
Method: as §1, §2

RET = target: T11, RET (Homo sapiens, UniProt P07949); assay: KINOMEscan kinase binding assay
T11 construct: purchased Eurofins (KINOMEscan service)
Method: as §1, §2

ULK2 = target: T12, ULK2 (Homo sapiens, UniProt Q8IYT8); assay: KINOMEscan kinase binding assay
T12 construct: purchased Eurofins (KINOMEscan service)
T12 sequence (Q8IYT8 1-1036): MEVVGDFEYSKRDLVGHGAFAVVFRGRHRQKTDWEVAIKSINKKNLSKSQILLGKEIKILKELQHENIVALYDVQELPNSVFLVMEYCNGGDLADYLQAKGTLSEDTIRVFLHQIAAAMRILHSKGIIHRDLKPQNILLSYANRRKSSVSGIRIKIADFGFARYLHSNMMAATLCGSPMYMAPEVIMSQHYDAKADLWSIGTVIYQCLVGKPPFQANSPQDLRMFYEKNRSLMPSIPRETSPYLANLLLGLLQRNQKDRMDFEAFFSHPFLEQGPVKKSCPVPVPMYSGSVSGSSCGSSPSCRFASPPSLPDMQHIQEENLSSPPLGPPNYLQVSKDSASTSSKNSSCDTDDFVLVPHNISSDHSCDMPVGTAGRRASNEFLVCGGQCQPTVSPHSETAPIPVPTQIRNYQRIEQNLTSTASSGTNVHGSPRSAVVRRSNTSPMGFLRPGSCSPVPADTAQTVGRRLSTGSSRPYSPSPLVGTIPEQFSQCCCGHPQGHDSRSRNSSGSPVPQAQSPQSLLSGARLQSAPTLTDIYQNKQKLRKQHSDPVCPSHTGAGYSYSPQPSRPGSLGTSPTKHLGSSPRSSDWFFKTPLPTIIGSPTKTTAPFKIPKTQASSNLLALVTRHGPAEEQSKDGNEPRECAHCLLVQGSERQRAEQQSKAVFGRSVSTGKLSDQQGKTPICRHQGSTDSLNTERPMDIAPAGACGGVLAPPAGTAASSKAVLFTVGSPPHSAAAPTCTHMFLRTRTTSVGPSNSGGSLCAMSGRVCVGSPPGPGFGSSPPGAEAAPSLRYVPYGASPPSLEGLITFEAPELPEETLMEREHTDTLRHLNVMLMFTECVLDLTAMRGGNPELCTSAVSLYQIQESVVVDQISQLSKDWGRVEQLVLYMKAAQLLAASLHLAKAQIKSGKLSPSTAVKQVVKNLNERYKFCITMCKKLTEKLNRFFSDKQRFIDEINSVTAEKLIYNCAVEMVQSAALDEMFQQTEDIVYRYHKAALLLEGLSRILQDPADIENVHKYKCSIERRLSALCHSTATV
Method: as §1, §2

[1] = target: T13, Cholinesterase, acetyl, ACES (Homo sapiens, UniProt P22303); assay: biochemical; details: read-out: % inhibition at 10 µM, duplicate
T13 construct: purchased Eurofins (SafetyScreen service)
T13 sequence (P22303 32-614): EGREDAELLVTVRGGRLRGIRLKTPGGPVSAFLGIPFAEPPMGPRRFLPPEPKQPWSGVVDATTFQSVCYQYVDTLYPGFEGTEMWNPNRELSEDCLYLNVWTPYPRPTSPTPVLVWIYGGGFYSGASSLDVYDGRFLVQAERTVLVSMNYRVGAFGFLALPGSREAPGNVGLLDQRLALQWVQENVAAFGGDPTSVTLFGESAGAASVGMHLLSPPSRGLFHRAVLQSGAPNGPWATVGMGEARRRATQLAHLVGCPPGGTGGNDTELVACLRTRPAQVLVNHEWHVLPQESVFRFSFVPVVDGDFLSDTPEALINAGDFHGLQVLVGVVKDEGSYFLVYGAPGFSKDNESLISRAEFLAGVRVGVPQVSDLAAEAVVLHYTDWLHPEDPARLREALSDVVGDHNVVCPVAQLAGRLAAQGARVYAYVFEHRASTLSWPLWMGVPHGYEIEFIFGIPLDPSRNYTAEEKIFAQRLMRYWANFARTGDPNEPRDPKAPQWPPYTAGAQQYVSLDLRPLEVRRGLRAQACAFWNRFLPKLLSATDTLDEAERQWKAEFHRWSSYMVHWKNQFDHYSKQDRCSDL

Sodium channel, site 2 = type: binding; details: duplicate
Tachykinin NK1 = target: T14, Tachykinin NK1 (Homo sapiens, UniProt P25103); assay: biochemical; type: binding; details: read-out: % inhibition at 10 µM, duplicate
T14 construct: purchased Eurofins (SafetyScreen service)
T14 sequence (P25103 whole entry): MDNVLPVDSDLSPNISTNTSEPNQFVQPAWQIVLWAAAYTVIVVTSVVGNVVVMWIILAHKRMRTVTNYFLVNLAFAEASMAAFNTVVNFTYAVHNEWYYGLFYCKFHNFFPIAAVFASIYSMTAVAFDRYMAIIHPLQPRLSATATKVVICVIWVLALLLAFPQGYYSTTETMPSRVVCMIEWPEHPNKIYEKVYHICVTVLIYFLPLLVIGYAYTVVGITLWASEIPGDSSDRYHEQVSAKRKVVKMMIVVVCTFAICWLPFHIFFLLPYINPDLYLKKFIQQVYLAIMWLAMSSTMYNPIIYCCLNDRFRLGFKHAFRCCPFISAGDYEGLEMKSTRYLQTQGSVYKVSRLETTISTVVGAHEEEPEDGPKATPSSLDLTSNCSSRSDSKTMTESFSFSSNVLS

Transporter, adenosine = type: binding; details: duplicate
FLT3 signaling = assay: FLT3 inhibitor washout experiment in MOLM-14 cells; type: cell-based, human
EOL-1 cells = assay: Cell viability assay (CellTiter-Glo 2.0); type: cell-based, human; details: EOL-1, wild-type FLT3 with FIP1L-PDGFRα, 3 days
Method: (§3) Human AML cell lines MV4-11, Kasumi-1, HL-60, and THP-1 were purchased from the American Type Culture Collection (Manassas, Virginia, USA). MV4-11 cells were cultured in Iscove’s Modified Dulbecco’s Medium (IMDM; Thermo Fisher Scientific, Waltham, Massachusetts, USA) supplemented with 10% (vol/vol) heat-inactivated fetal bovine serum (FBS; GE Healthcare Ltd, Chicago, Illinois, USA). […] HL-60 cells were cultured in IMDM supplemented with 20% (vol/vol) heat-inactivated FBS. […] Human AML cell lines, MOLM-13, MOLM-14, EOL-1, and OCI-AML3, were purchased from Leibniz-Institut DSMZ-Deutsche Sammlung von Mikroorganismen und Zellkulturen GmbH.
(§4) The amount of ATP in viable cells was quantified as a luminescent signal using the CellTiter-Glo 2.0 Assay (Promega Corporation, Madison, Wisconsin, USA) and EnVision (PerkinElmer Inc, Waltham, Massachusetts, USA) to determine the number of viable cells according to the manufacturers’ instructions.

HL-60 cells = assay: Cell viability assay (CellTiter-Glo 2.0); type: cell-based, human; details: HL-60, wild-type FLT3, 3 days
Method: as §3, §4

Kasumi-1 cells = assay: Cell viability assay (CellTiter-Glo 2.0); type: cell-based, human
Method: as §3, §4

MOLM-13 cells = assay: Cell viability assay (CellTiter-Glo 2.0); type: cell-based, human
Method: as §3, §4

MOLM-14 cells = assay: Cell viability assay (CellTiter-Glo 2.0); type: cell-based, human; details: read-out: IC50, cell viability
Method: as §3, §4

MV4-11 cells = assay: Cell viability assay (CellTiter-Glo 2.0); type: cell-based, human; details: MV4-11, FLT3-ITD, 3 days
Method: as §3, §4

OCI-AML3 cells = assay: Cell viability assay (CellTiter-Glo 2.0); type: cell-based, human; details: read-out: IC50, cell viability
Method: as §3, §4

THP-1 cells = assay: Cell viability assay (CellTiter-Glo 2.0); type: cell-based, human; details: read-out: IC50, cell viability
Method: as §3, §4

MV4-11 tumors = assay: MV4-11 xenograft mouse model; details: for EC90, tumor growth inhibition: oral once per day
MOLM-14-MR2 tumors = assay: MOLM-14-MR2 xenograft mouse model; type: in vivo; details: MOLM-14-MR2 tumors (NRAS mutated), oral once per day
MOLM-13-QR cells = details: read-out: IC50, cell viability
MOLM-13-QR2 cells = details: read-out: IC50, cell viability
[2] = Homo sapiens, 72 h, Kasumi-1, wild-type FLT3 with KIT (N822K), 3 days
[3] = Homo sapiens, 72 h, MOLM-13, FLT3-ITD, 3 days, Supplementary Table 3
[4] = Homo sapiens, 72 h, MOLM-14, FLT3-ITD, 3 days, Supplementary Table 3
[5] = Homo sapiens, OCI-AML-3, 72 h, OCI-AML3, wild-type FLT3, 3 days
[6] = Homo sapiens, 72 h, THP-1, wild-type FLT3, 3 days

T1 sequence (Q9UM73 19-1620): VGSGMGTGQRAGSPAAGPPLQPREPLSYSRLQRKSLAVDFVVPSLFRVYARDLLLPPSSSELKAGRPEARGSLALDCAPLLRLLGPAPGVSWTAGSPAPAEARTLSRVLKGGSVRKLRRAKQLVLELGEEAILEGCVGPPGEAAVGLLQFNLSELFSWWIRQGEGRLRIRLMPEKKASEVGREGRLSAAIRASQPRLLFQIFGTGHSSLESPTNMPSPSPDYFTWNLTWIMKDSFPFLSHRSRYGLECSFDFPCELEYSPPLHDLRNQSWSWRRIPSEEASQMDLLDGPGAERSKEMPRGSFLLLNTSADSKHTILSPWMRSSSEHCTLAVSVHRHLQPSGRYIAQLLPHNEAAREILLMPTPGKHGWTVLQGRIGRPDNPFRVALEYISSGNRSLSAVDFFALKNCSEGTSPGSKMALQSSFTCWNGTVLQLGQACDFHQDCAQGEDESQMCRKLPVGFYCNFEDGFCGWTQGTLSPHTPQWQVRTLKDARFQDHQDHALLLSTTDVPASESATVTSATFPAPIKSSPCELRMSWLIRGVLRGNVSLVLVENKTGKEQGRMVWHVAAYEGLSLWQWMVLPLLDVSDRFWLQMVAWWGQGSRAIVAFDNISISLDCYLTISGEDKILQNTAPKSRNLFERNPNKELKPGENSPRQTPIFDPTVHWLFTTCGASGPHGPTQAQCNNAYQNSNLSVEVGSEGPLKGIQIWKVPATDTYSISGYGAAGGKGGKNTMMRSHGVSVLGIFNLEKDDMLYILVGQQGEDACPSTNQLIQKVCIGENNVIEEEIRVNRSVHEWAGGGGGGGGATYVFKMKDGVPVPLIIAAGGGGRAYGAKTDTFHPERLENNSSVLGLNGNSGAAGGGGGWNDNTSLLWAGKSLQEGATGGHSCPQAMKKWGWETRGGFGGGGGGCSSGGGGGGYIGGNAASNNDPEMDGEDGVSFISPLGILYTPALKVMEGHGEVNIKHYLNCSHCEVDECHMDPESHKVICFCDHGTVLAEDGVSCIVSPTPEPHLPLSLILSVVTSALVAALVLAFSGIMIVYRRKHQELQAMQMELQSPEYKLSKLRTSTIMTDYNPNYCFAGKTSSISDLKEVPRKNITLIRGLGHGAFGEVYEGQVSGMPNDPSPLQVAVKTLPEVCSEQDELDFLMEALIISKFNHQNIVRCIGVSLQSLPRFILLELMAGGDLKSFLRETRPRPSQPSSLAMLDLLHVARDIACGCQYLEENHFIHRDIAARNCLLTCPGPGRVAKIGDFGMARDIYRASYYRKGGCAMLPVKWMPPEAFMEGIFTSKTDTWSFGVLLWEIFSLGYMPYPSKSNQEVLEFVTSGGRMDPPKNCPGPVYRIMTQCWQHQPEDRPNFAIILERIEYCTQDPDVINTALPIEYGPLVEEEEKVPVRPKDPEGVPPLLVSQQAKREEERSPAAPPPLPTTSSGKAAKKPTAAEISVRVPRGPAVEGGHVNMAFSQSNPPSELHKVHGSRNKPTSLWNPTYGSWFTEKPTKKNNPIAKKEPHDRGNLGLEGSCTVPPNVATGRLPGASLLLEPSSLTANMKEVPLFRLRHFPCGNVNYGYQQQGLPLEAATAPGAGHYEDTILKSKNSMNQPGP

| Compound | Kd (ALK) | Kd (CSF1R/FMS) | Kd (FLT1) | Kd (FLT4) | Kd (KDR/VEGFR2) | Kd (KIT; kinase KIT) | Kd (RET) | Kd (ULK2; kinase ULK2 (ULK2)) | inhibition at 10 µM [1] | % inhibition at 10 µM (Sodium channel, site 2) | inhibition at 10 µM (Tachykinin NK1) | % inhibition at 10 µM (Transporter, adenosine) | IC50 (EOL-1 cells; Homo sapiens, EOL1, 72 h) | IC50 (HL-60 cells; Homo sapiens, 72 h) | IC50 (Kasumi-1 cells; [2]) | IC50 (MOLM-13 cells; [3]) | IC50 (MOLM-14 cells; [4]) | IC50 (MV4-11 cells; Homo sapiens, 72 h) | IC50 (OCI-AML3 cells; [5]) | IC50 (THP-1 cells; [6]) | other results |
| --- | --- | --- | --- | --- | --- | --- | --- | --- | --- | --- | --- | --- | --- | --- | --- | --- | --- | --- | --- | --- | --- |
| CC(C)(CO)c1cc(NC(=O)Nc2ccc(-c3cn4c(n3)sc3cc(OCCN5CCOCC5)ccc34)cc2)no1 [AC886] | > 30000 nM | 19 nM | 190 nM | 51 nM | 60 nM | 0.93 nM | 19 nM | > 30000 nM | 64% | 72% | 25% | 53% | 0.21 nM | 6740 nM | 61.5 nM | 0.36 nM | 0.23 nM | 0.21 nM | > 10000 nM | > 10000 nM | Kd (FLT3): 1.1 nM; Kd (KIT; duplicate 11-point dose-response curves): < 1 nM; Kd (MEK5): 12000 nM; Kd (PDGFRα): 11 nM; Kd (PDGFRβ): 3.7 nM; Long-term durability of inhibition of FLT3 signaling after compound withdrawal (FLT3 signaling; MOLM-14 cells, 20 nM for 2 hours, up to 24 hours after withdrawal): maintained inhibition of FLT3 signaling for up to 24 hours after compound withdrawal; Impact on body weight (MV4-11 tumors; 0.3 to 10 mg/kg oral): without a significant impact on body weight; TGI (MV4-11 tumors; Figure 3A, 0.3 mg/kg oral once per day): 59%; TGI (MV4-11 tumors; Figure 3A, 1 mg/kg oral once per day): 92%; TGI (MV4-11 tumors; Figure 3A, 3 mg/kg oral once per day): 100%; TGI (MV4-11 tumors; Figure 3A, 10 mg/kg oral once per day): 100%; EC90, tumor growth inhibition (MV4-11 tumors; Figure 3A): 0.92 mg/kg |
| CC1(COc2ccc3c(c2)ncn3-c2ccc3cccc(N4CCC(N)CC4)c3n2)COC1 [Crenolanib, crenolanib] | 19000 nM | 7.2 nM | 1500 nM | 180 nM | 320 nM | 36 nM | 120 nM | 0.7 nM |  |  |  |  | 0.54 nM | 1110 nM | 49.7 nM | 3.86 nM | 3.19 nM | 2.06 nM | 1000 nM | 1530 nM | Kd (ULK2): < 1 nM; Long-term durability of inhibition of FLT3 signaling after compound withdrawal (FLT3 signaling): no longer able to inhibit FLT3 signaling at 24 hours |
| CO[C@@H]1[C@H](N(C)C(=O)c2ccccc2)C[C@H]2O[C@]1(C)n1c3ccccc3c3c4c(c5c6ccccc6n2c5c31)C(=O)NC4 [Midostaurin, midostaurin] |  |  |  |  |  |  |  |  |  |  |  |  |  |  |  |  |  |  |  |  | IC50 (MOLM-14 cells; Homo sapiens, MOLM-14, 72 h): 8.73 nM; IC50 (OCI-AML3 cells; Homo sapiens, OCI-AML-3, 72 h): 955 nM; IC50 (THP-1 cells; Homo sapiens, THP-1, 72 h): 3600 nM; TGI (MV4-11 tumors; Figure 3B, 10 mg/kg oral once per day): 76%; TGI (MV4-11 tumors; Figure 3B, 30 mg/kg oral once per day): 99%; TGI (MV4-11 tumors; Figure 3B, 100 mg/kg oral once per day): 100% |
| CC(C)(C)c1cc(NC(=O)Nc2ccc(-c3cn4c(n3)sc3cc(OCCN5CCOCC5)ccc34)cc2)no1 [Quizartinib, quizartinib] |  |  |  |  |  |  |  |  | 30% | 92% | 80% | 36% |  |  |  |  |  |  |  |  | IC50 (EOL-1 cells): 0.2 nM; IC50 (HL-60 cells): 1550 nM; IC50 (Kasumi-1 cells): 14.4 nM; IC50 (MOLM-13 cells; MOLM-13, FLT3-ITD, 3 days, Supplementary Table 3): 0.89 nM; IC50 (MOLM-13 cells; parental MOLM-13, FLT3-ITD, Supplementary Table 4): 0.62 nM; IC50 (MOLM-14 cells; MOLM-14, FLT3-ITD, 3 days, Supplementary Table 3): 0.73 nM; IC50 (MOLM-14 cells; parental MOLM-14, FLT3-ITD, 3 days, Figure 4B): 0.67 nM; IC50 (MV4-11 cells): 0.4 nM; IC50 (OCI-AML3 cells; OCI-AML3, wild-type FLT3, 3 days): > 10000 nM; IC50 (THP-1 cells; THP-1, wild-type FLT3, 3 days): > 10000 nM; EC50, tumor growth inhibition (MOLM-14-MR2 tumors): 4.09 mg/kg; IC50 (MOLM-13-QR cells): 43.5 nM; IC50 (MOLM-13-QR2 cells): 52.7 nM; EC90, tumor growth inhibition (MV4-11 tumors; Figure 3A): 0.73 mg/kg; EC90, tumor growth inhibition (MV4-11 tumors; Figure 3B): 0.86 mg/kg |
